{
  "source": "ChEMBL document CHEMBL4196089",
  "about": "“Design, synthesis, biological evaluation and in vivo testing of dual phosphodiesterase 5 (PDE5) and histone deacetylase 6 (HDAC6)-selective inhibitors for the treatment of Alzheimer's disease” (Eur J Med Chem, 2018)",
  "key": {"[1]": {"molecular_target": "cGMP-specific 3',5'-cyclic phosphodiesterase (Homo sapiens, UniProt O76074)", "test": "Inhibition of full length human recombinant N-terminal GST-tagged PDE5A1 expressed in baculovirus infected sf9 cells using cGMP as substrate after 30 mins by fluorescence assay"}, "[2]": {"molecular_target": "Protein deacetylase HDAC6 (Mus musculus) (UniProt Q9Z2V5)", "sequence (Q9Z2V5 whole entry)": "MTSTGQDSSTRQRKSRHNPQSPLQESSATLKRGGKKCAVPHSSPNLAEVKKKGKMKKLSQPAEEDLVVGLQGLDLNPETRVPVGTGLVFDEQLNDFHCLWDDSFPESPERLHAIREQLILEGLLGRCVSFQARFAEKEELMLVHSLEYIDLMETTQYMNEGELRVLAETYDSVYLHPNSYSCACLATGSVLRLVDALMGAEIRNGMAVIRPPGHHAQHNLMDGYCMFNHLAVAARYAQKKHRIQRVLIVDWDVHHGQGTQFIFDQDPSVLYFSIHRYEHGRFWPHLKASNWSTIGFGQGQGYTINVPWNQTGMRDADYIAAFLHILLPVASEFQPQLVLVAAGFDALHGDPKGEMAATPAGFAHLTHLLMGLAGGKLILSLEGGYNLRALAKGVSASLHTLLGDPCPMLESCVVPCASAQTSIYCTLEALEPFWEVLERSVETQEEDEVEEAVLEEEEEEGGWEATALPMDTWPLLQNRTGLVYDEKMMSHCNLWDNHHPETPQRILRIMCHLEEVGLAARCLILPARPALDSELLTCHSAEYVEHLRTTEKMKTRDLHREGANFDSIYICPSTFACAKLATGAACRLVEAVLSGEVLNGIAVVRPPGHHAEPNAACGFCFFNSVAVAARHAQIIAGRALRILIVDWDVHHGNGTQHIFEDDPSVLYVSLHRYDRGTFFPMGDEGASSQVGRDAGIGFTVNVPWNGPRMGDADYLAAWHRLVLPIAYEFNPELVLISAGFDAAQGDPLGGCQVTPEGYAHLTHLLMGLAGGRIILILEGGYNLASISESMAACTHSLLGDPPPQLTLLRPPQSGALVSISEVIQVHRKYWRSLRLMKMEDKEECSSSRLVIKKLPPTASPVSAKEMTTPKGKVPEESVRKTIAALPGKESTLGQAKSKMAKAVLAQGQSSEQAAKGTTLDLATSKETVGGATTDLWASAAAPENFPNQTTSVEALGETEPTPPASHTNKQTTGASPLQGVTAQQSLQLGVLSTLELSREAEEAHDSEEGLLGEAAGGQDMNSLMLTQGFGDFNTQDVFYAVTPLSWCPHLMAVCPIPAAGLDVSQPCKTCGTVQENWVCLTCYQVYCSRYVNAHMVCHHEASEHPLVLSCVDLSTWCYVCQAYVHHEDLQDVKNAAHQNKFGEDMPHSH", "test": "Inhibition of HDAC6 in Tg2576 mouse primary neurons assessed as reduction in human APP protein level at 100 nM treated for 2 days measured at 24 hrs post last dose by Western blot analysis relative to control"}, "Histone deacetylase 9": {"molecular_target": "Histone deacetylase 9 (Homo sapiens, UniProt Q9UKV0)", "sequence (Q9UKV0 whole entry)": "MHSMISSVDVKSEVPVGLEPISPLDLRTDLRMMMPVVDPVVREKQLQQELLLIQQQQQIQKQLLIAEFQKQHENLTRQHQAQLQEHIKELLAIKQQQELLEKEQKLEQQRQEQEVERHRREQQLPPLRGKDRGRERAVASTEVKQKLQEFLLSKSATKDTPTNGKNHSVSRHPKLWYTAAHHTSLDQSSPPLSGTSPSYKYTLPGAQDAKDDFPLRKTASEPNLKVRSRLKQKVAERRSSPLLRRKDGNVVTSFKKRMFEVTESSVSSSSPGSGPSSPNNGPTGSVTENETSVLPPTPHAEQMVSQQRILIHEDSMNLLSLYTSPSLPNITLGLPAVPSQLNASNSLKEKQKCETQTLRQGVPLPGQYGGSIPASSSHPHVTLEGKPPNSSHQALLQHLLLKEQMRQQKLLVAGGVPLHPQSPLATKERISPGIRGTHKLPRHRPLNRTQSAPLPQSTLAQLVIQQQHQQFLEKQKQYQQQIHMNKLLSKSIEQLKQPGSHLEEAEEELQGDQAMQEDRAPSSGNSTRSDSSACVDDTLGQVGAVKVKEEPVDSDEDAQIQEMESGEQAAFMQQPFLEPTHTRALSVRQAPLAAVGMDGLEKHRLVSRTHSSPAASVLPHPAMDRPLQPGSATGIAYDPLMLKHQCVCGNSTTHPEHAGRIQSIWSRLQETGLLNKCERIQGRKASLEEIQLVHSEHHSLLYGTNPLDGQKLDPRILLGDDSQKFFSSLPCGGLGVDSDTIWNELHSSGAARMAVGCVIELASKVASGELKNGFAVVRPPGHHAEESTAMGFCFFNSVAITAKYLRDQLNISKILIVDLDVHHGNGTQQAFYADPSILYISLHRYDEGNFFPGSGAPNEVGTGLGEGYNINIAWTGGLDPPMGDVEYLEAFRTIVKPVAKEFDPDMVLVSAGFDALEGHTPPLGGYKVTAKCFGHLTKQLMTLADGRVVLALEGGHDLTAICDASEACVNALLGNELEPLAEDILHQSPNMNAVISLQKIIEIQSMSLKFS", "test": "Inhibition of human HDAC9"}, "CYP2C19": {"molecular_target": "CYP2C19 (Homo sapiens, UniProt P33261)", "sequence (P33261 whole entry)": "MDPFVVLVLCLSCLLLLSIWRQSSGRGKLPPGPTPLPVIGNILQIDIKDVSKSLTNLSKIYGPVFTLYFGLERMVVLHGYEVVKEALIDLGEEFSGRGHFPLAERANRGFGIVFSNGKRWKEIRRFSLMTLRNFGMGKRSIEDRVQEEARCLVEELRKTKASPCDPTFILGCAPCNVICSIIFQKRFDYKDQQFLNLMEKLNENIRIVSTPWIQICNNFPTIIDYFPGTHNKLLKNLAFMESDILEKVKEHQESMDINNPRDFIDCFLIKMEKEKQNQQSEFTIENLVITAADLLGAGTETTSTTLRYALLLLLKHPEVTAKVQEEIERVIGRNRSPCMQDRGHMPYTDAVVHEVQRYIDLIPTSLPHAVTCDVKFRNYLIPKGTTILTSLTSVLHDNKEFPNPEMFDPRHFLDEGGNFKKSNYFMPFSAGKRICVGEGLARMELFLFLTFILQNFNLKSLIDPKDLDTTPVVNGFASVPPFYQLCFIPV", "test": "Inhibition of CYP2C19 in human liver microsomes at 10 uM after 10 mins in presence of NADPH by LC-MS/MS analysis relative to control", "format": "ADME"}, "[3]": {"test": "Selectivity ratio of compound effect for inhibition of HDAC6 in human SH-SY5Y cells assessed as induction of tubulin K-40 acetylation level to compound effect for inhibition of class-1 HDAC in human SH-SY5Y cells assessed as induction of AcH3K9 level", "format": "functional"}, "CYP2C9": {"molecular_target": "CYP2C9 (Homo sapiens, UniProt P11712)", "sequence (P11712 whole entry)": "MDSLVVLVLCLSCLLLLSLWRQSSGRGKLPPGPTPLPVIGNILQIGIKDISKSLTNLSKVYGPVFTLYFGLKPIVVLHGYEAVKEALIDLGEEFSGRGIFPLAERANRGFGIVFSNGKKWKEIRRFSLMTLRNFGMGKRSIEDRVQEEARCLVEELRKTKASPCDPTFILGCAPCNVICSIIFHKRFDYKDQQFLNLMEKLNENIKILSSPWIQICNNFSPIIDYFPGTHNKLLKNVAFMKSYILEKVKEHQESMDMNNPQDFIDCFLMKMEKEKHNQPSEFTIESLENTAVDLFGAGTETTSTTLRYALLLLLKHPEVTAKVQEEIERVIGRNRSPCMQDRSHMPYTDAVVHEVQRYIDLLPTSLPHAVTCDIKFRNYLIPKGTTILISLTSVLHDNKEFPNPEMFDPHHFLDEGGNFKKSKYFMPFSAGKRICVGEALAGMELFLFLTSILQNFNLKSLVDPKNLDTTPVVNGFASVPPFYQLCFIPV", "test": "Inhibition of CYP2C9 in human liver microsomes at 10 uM after 10 mins in presence of NADPH by LC-MS/MS analysis relative to control", "format": "ADME"}, "CYP3A4": {"molecular_target": "CYP3A4 (Homo sapiens, UniProt P08684)", "sequence (P08684 whole entry)": "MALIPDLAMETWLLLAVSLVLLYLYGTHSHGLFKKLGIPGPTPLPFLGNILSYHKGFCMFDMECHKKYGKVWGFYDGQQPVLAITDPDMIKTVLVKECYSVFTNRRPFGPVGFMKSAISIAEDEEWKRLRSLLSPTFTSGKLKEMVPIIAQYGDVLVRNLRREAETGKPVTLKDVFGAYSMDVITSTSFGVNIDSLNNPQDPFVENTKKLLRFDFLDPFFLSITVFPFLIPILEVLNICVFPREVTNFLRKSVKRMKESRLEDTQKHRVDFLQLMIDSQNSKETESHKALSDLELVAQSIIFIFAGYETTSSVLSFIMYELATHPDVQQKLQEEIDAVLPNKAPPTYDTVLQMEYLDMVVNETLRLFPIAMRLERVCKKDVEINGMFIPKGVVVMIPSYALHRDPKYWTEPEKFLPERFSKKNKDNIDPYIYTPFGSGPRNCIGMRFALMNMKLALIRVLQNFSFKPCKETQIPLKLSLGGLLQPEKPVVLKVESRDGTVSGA", "test": "Inhibition of CYP3A4 in human liver microsomes at 10 uM after 10 mins in presence of NADPH by LC-MS/MS analysis relative to control", "format": "ADME"}, "[4]": {"molecular_target": "Cone cGMP-specific 3',5'-cyclic phosphodiesterase subunit alpha' (Homo sapiens, UniProt P51160)", "sequence (P51160 whole entry)": "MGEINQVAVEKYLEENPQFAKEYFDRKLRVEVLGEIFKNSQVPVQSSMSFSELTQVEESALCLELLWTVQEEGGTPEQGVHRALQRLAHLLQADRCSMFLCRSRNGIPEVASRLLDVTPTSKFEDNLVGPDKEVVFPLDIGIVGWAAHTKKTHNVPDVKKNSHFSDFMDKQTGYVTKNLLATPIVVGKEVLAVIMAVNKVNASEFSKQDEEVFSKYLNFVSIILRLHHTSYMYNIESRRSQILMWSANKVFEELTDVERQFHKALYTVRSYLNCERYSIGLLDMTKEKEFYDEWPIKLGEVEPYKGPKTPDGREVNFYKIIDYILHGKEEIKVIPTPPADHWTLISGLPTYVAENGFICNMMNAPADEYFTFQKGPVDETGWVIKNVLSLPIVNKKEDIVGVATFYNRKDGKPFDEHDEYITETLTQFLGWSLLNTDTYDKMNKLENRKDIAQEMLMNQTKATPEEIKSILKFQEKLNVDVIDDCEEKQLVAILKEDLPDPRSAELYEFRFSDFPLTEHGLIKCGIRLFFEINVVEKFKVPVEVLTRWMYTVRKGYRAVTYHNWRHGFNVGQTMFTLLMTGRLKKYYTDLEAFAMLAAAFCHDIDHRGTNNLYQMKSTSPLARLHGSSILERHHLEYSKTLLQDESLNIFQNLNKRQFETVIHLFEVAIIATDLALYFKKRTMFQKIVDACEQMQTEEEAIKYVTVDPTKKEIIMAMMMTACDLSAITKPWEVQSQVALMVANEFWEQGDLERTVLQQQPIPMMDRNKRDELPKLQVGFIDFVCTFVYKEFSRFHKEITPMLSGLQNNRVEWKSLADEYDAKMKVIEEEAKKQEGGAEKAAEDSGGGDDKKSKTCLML", "test": "Inhibition of PDE6C (unknown origin) using FAM-cGMP as substrate by fluorescence assay"}, "[5]": {"test": "Effective permeability of the compound at 50 uM after 18 hrs by UV spectroscopy based PAMPA", "format": "ADME", "details": "read-out: Peff"}, "Histone deacetylase 1": {"molecular_target": "Histone deacetylase 1 (Homo sapiens, UniProt Q13547)", "sequence (Q13547 whole entry)": "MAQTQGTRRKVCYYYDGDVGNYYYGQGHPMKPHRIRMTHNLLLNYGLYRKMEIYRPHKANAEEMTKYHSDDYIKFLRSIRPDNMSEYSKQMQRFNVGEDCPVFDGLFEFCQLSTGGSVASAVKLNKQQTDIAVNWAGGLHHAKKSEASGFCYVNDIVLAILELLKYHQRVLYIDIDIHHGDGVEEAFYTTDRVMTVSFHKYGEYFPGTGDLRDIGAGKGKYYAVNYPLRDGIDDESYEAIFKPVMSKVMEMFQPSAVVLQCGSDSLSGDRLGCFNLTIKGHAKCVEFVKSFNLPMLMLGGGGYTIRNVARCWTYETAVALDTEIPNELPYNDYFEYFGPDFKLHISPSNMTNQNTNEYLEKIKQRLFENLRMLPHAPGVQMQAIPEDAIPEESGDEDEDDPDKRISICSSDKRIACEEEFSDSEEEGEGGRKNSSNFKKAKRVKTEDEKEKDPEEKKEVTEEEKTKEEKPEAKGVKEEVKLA", "test": "Inhibition of full length human recombinant C-terminal FLAG/His-tagged HDAC1 expressed in baculovirus infected sf9 cells assessed residence time preincubated fopr 2 hrs followed by dilution and subsequent fluorogenic HDAC substrate 3 addition measured at 2 mins time interval by fluorescence based jump dilution assay"}},
  "data": [
    {"compound": "CCCc1nn(C)c2c(=O)[nH]c(-c3cc(Cc4ccc(C(=O)NO)s4)ccc3OCC)nc12", "values": [
      {"measurement": "IC50", "setting": "[1]", "result": 0.011, "unit": "µM"},
      {"measurement": "inhibition", "setting": "[2]", "result": 55, "unit": "%"},
      {"measurement": "IC50", "setting": "Histone deacetylase 9", "result": "> 10", "unit": "µM"},
      {"measurement": "inhibition at 10 min, 10 µM", "setting": "CYP2C19", "result": "< 50", "unit": "%"},
      {"measurement": "Selectivity ratio", "setting": "[3]", "result": ">5"},
      {"measurement": "inhibition at 10 min, 10 µM", "setting": "CYP2C9", "result": "< 50", "unit": "%"},
      {"measurement": "inhibition at 10 min, 10 µM", "setting": "CYP3A4", "result": 23.4, "unit": "%"},
      {"measurement": "IC50", "setting": "[4]", "result": 0.0014, "unit": "µM"},
      {"measurement": "Papp at 18 h, 50 µM", "setting": "[5]", "result": 29.1, "unit": "nm/s"},
      {"measurement": "residence time", "setting": "Histone deacetylase 1", "result": 15.5, "unit": "min"}
    ]}
  ]
}
